Data taken from patent publication US11649255B2, “Indazoles as hematopoietic progenitor kinase 1 (HPK1) inhibitors and methods using same” (1st Biotherapeutics, Inc., priority 2020, dated 2023).

Biological target: recombinant human HPK1 (Homo sapiens (Human), UniProt Q92918)
Experiment: HPK1 kinase assay (ADP-Glo)
Assay type: biochemical
Conditions: 25 μM ATP, MBP substrate
Protocol: HPK1 kinase activity was measured by Promega's ADP-Glo™ kinase assay. In this assay, 5 ng of recombinant human HPK1 (signalchem) is incubated with 5 μL of compounds (0.5% DMSO), 5 μL of MBP (0.5 μg/μl) and 5 μL of ATP (25 μM) in buffer (40 mM Tris, 7.5; 20 mM MgCl2; 0.1 mg/ml BSA; 5 μM DTT). The assay was started by incubating the reaction mixture in a 96-well plate at 30′ C for 40 minutes. After the incubation, 25 uL ADP-Glo reagent was added and the reaction was incubated at room temperature for 40-min to stop the reaction and degrade residual ATP. The ADP product was then converted to ATP by adding 50 uL per well of detection reagent. Luminescence was detected after 30-min room temperature incubation with the Molecular device I3X plate reader. The IC50 values were calculated from a series of percent inhibition values determined at a range of inhibitor concentration using software routines as implemented in the GraphPad Prism 7 software and SigmaPlot13.0.

Chain of recombinant human HPK1 (Q92918 whole entry): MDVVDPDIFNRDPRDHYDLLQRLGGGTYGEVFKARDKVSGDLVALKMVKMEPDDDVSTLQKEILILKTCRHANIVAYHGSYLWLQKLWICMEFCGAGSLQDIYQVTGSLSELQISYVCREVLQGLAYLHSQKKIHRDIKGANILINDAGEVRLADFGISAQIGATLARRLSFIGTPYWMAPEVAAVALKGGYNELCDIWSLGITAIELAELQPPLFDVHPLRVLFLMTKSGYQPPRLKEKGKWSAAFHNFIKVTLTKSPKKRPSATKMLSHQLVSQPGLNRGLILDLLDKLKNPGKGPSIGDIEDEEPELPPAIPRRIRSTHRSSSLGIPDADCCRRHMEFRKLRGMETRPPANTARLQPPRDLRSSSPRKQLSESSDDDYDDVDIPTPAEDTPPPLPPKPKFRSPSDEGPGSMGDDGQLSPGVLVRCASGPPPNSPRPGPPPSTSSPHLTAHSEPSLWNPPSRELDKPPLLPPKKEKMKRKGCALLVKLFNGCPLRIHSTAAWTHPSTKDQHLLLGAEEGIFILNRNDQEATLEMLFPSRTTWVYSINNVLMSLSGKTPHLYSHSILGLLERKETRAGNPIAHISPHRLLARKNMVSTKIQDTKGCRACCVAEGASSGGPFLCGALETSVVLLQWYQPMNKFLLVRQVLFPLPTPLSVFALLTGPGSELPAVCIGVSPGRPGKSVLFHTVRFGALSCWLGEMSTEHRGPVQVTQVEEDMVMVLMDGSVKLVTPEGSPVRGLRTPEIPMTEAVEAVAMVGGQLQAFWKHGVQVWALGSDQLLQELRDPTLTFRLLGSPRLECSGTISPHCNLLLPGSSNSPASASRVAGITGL

Compound | IC50
Cc1c(F)c([S+](C)[O-])c2[nH]ncc2c1-c1ccc2nc(NC(=O)[C@@H]3C[C@@H]3F)sc2c1 (stereo partly drawn) [Example 66, (1S,2S)-2-fluoro-N-(6-(6-fluoro-5-methyl-7-(methylsulfinyl)-1H-indazol-4-yl)benzo[d]thiazol-2-yl)cyclopropane-1-carboxamide] | < 100 nM
CN(C)c1c(F)c(Cl)c(-c2ccc3nc(NC(=O)[C@@H]4C[C@@H]4F)sc3c2)c2cn[nH]c12 [Example 69, (1S,2S)-N-(6-(5-chloro-7-(dimethylamino)-6-fluoro-1H-indazol-4-yl)benzo[d]thiazol-2-yl)-2-fluorocyclopropane-1-carboxamide] | < 100 nM
COCCSc1c(F)c(Cl)c(-c2ccc3nc(NC(=O)[C@@H]4C[C@@H]4F)sc3c2)c2cn[nH]c12 [Example 71, (1S,2S)-N-(6-(5-chloro-6-fluoro-7-((2-methoxyethyl)thio)-1H-indazol-4-yl)benzo[d]thiazol-2-yl)-2-] | < 100 nM
C=CC(=O)Nc1c(F)c(Cl)c(-c2ccc3nc(NC(=O)[C@@H]4C[C@@H]4F)sc3c2)c2cn[nH]c12 [Example 72, (1S,2S)-N-(6-(7-acrylamido-5-chloro-6-fluoro-1H-indazol-4-yl)benzo[d]thiazol-2-yl)-2-fluorocyclopropane-1-carboxamide] | 101 to 500 nM
CC(=O)NCCSc1c(F)c(Cl)c(-c2ccc3nc(NC(=O)[C@@H]4C[C@@H]4F)sc3c2)c2cn[nH]c12 [Example 73, (1S,2S)-N-(6-(7-((2-acetamidoethyl)thio)-5-chloro-6-fluoro-1H-indazol-4-yl)benzo[d]thiazol-2-yl)-2-fluorocyclopropane-1-carboxamide] | < 100 nM
O=C(Nc1nc2ccc(-c3c(Cl)c(F)c(N4CCOCC4)c4[nH]ncc34)cc2s1)[C@@H]1C[C@@H]1F [Example 74, (1S,2S)-N-(6-(5-chloro-6-fluoro-7-morpholino-1H-indazol-4-yl)benzo[d]thiazol-2-yl)-2-fluorocyclopropane-1-carboxamide] | 101 to 500 nM
O=C(Nc1nc2ccc(-c3c(Cl)c(F)c(N4CCC(O)C4)c4[nH]ncc34)cc2s1)[C@@H]1C[C@@H]1F (stereo partly drawn) [Example 78, (1S,2S)-N-(6-(5-chloro-6-fluoro-7-(3-hydroxypyrrolidin-1-yl)-1H-indazol-4-yl)benzo[d]thiazol-2-yl)-2-fluorocyclopropane-1-carboxamide] | 101 to 500 nM
COc1c(F)c(Cl)c(-c2ccc3nc(NC(=O)[C@@H]4C[C@@H]4F)sc3c2)c2cn[nH]c12 [Example 80, (1S,2S)-N-(6-(5-chloro-6-fluoro-7-methoxy-1H-indazol-4-yl)benzo[d]thiazol-2-yl)-2-fluorocyclopropane-1-carboxamide] | < 100 nM
CCOc1c(F)c(Cl)c(-c2ccc3nc(NC(=O)[C@@H]4C[C@@H]4F)sc3c2)c2cn[nH]c12 [Example 81, (1S,2S)-N-(6-(5-chloro-7-ethoxy-6-fluoro-1H-indazol-4-yl)benzo[d]thiazol-2-yl)-2-fluorocyclopropane-1-carboxamide] | < 100 nM
NC1CCN(c2c(F)c(Cl)c(-c3ccc4nc(NC(=O)[C@@H]5C[C@@H]5F)sc4c3)c3cn[nH]c23)CC1 [Example 83, (1S,2S)-N-(6-(7-(4-aminopiperidin-1-yl)-5-chloro-6-fluoro-1H-indazol-4-yl)benzo[d]thiazol-2-yl)-2-fluorocyclopropane-1-carboxamide] | 101 to 500 nM
NC1CCCN(c2c(F)c(Cl)c(-c3ccc4nc(NC(=O)[C@@H]5C[C@@H]5F)sc4c3)c3cn[nH]c23)C1 (stereo partly drawn) [Example 84, (1S,2S)-N-(6-(7-(3-aminopiperidin-1-yl)-5-chloro-6-fluoro-1H-indazol-4-yl)benzo[d]thiazol-2-yl)-2-fluorocyclopropane-1-carboxamide] | < 100 nM
CN(C)CCN(C)c1c(F)c(Cl)c(-c2ccc3nc(NC(=O)[C@@H]4C[C@@H]4F)sc3c2)c2cn[nH]c12 [Example 85, (1S,2S)-N-(6-(5-chloro-7-((2-(dimethylamino)ethyl)(methyl)amino)-6-fluoro-1H-indazol-4-yl)benzo[d]thiazol-2-yl)-2-fluorocyclopropane-1-carboxamide] | < 100 nM
NCC1CCN(c2c(F)c(Cl)c(-c3ccc4nc(NC(=O)[C@@H]5C[C@@H]5F)sc4c3)c3cn[nH]c23)C1 (stereo partly drawn) [Example 91, (1S,2S)-N-(6-(7-(3-(aminomethyl)pyrrolidin-1-yl)-5-chloro-6-fluoro-1H-indazol-4-yl)benzo[d]thiazol-2-yl)-2-fluorocyclopropanecarboxamide] | 101 to 500 nM

Results, then the compound that gave them:

IC50 | Compound
< 100 nM | CSc1c(F)c(C)c(-c2ccc3nc(NC(=O)[C@@H]4C[C@@H]4F)sc3c2)c2cn[nH]c12 [Example 64, (1S,2S)-2-fluoro-N-(6-(6-fluoro-5-methyl-7-(methylthio)-1H-indazol-4-yl)benzo[d]thiazol-2-yl)cyclopropane-1-carboxamide]
< 100 nM | Cc1c(F)cc2[nH]ncc2c1-c1ccc2nc(NC(=O)[C@@H]3C[C@@H]3F)sc2c1CCc1ccncc1 [Example 65, (1S,2S)-2-fluoro-N-(6-(6-fluoro-5-methyl-1H-indazol-4-yl)-7-(2-(pyridin-4-yl)ethyl)benzo[d]thiazol-2-yl)cyclopropane-1-carboxamide]
< 100 nM | Cc1c(F)c(I)c2[nH]ncc2c1-c1ccc2nc(NC(=O)[C@@H]3C[C@@H]3F)sc2c1 [Example 67, (1S,2S)-2-fluoro-N-(6-(6-fluoro-7-iodo-5-methyl-1H-indazol-4-yl)benzo[d]thiazol-2-yl)cyclopropane-1-carboxamide]
< 100 nM | Nc1c(F)c(Cl)c(-c2ccc3nc(NC(=O)[C@@H]4C[C@@H]4F)sc3c2)c2cn[nH]c12 [Example 68, (1S,2S)-N-(6-(7-amino-5-chloro-6-fluoro-1H-indazol-4-yl)benzo[d]thiazol-2-yl)-2-fluorocyclopropane-1-carboxamide]
< 100 nM | NCCSc1c(F)c(Cl)c(-c2ccc3nc(NC(=O)[C@@H]4C[C@@H]4F)sc3c2)c2cn[nH]c12 [Example 70, (1S,2S)-N-(6-(7-((2-aminoethyl)thio)-5-chloro-6-fluoro-1H-indazol-4-yl)benzo[d]thiazol-2-yl)-2-fluorocyclopropane-1-carboxamide]
101 to 500 nM | CN1CCN(c2c(F)c(Cl)c(-c3ccc4nc(NC(=O)[C@@H]5C[C@@H]5F)sc4c3)c3cn[nH]c23)CC1 [Example 75, (1S,2S)-N-(6-(5-chloro-6-fluoro-7-(4-methylpiperazin-1-yl)-1H-indazol-4-yl)benzo[d]thiazol-2-yl)-2-fluorocyclopropane-1-carboxamide]
101 to 500 nM | O=C(Nc1nc2ccc(-c3c(Cl)c(F)c(N4CCNCC4)c4[nH]ncc34)cc2s1)[C@@H]1C[C@@H]1F [Example 76, (1S,2S)-N-(6-(5-chloro-6-fluoro-7-(piperazin-1-yl)-1H-indazol-4-yl)benzo[d]thiazol-2-yl)-2-fluorocyclopropane-1-carboxamide]
< 100 nM | O=C(Nc1nc2ccc(-c3c(Cl)c(F)c(SCCO)c4[nH]ncc34)cc2s1)[C@@H]1C[C@@H]1F [Example 79, (1S,2S)-N-(6-(5-chloro-6-fluoro-7-((2-hydroxyethyl)thio)-1H-indazol-4-yl)benzo[d]thiazol-2-yl)-2-fluorocyclopropane-1-carboxamide]
< 100 nM | CN(CCN)c1c(F)c(Cl)c(-c2ccc3nc(NC(=O)[C@@H]4C[C@@H]4F)sc3c2)c2cn[nH]c12 [Example 82, (1S,2S)-N-(6-(7-((2-aminoethyl)(methyl)amino)-5-chloro-6-fluoro-1H-indazol-4-yl)benzo[d]thiazol-2-yl)-2-fluorocyclopropane-1-carboxamide]
< 100 nM | O=C(Nc1nc2ccc(-c3c(Cl)c(F)c(SCCCO)c4[nH]ncc34)cc2s1)[C@@H]1C[C@@H]1F [Example 86, (1S,2S)-N-(6-(5-chloro-6-fluoro-7-((3-hydroxypropyl)thio)-1H-indazol-4-yl)benzo[d]thiazol-2-yl)-2-fluorocyclopropanecarboxamide]
< 100 nM | O=C(O)NC1CN(c2c(F)c(Cl)c(-c3ccc4nc(NC(=O)[C@@H]5C[C@@H]5F)sc4c3)c3cn[nH]c23)C1 [Example 88, (1-(5-chloro-6-fluoro-4-(2-((1S,2S)-2-fluorocyclopropane-1-carboxamido)benzo[d]thiazol-6-yl)-1H-indazol-7-yl)azetidin-3-yl)carbamic acid]
< 100 nM | CN(C(=O)O)C1CN(c2c(F)c(Cl)c(-c3ccc4nc(NC(=O)[C@@H]5C[C@@H]5F)sc4c3)c3cn[nH]c23)C1 [Example 89, (1-(5-chloro-6-fluoro-4-(2-((1S,2S)-2-fluorocyclopropane-1-carboxamido)benzo[d]thiazol-6-yl)-1H-indazol-7-yl)azetidin-3-yl)(methyl)carbamic acid]
< 100 nM | O=C(O)NCC1CN(c2c(F)c(Cl)c(-c3ccc4nc(NC(=O)[C@@H]5C[C@@H]5F)sc4c3)c3cn[nH]c23)C1 [Example 90, ((1-(5-chloro-6-fluoro-4-(2-((1S,2S)-2-fluorocyclopropane-1-carboxamido)benzo[d]thiazol-6-yl)-1H-indazol-7-yl)azetidin-3-yl)methyl)carbamic acid]
< 100 nM | CNCCN(C)c1c(F)c(Cl)c(-c2ccc3nc(NC(=O)[C@@H]4C[C@@H]4F)sc3c2)c2cn[nH]c12 [Example 92, (1S,2S)-N-(6-(5-chloro-6-fluoro-7-(methyl(2-(methylamino)ethyl)amino)-1H-indazol-4-yl)benzo[d]thiazol-2-yl)-2-fluorocyclopropane-1-carboxamide]
